According to patent publication US20020051978A1, “Methods and compositions for the identification, assessment, prevention and therapy of human cancers” (priority 2000, published 2002):
“And” between values parts separate entries of the source, which are not always exact repeats. Equal values may be shown once. Read-outs that look alike come from different tables or passages of the source.

How the values were obtained:
[1] = system: 60 cancer cell lines (NCI 60 cancer cell line series); assay: NCI-DTP in vitro cancer screen, sulforhodamine B (SRB) growth inhibition, 48 hour exposure; assay type: cell-based, human; parameters: key to sensitivity class Ovarian OVCAR-8 CL6005 / sensitivity class Ovarian SK-OV-3 CL6011 / sensitivity class Prostate DU-145 CL11003 / sensitivity class NSCLC NCI-H522 CL1003 / sensitivity class Ovarian IGROV1 CL6010 / sensitivity class Ovarian OVCAR-4 CL6002 / sensitivity class Prostate PC-3(I) CL11001 / sensitivity class Renal A498 CL9013 / sensitivity class Renal SN12C CL9008: sensitivity class: 1 = Low, 2 = Medium, 3 = High; conditions: for sensitivity class NSCLC NCI-H23(I) CL1001: cell line NSCLC NCI-H23(I); for sensitivity class NSCLC NCI-H522 CL1003: cell line NSCLC NCI-H522, CL1003; for sensitivity class Ovarian IGROV1 CL6010: cell line Ovarian IGROV1, CL6010; for sensitivity class Ovarian OVCAR-4 CL6002: cell line Ovarian OVCAR-4, CL6002; for sensitivity class Ovarian OVCAR-5 CL6003: cell line Ovarian OVCAR-5, CL6003; for sensitivity class Ovarian OVCAR-8 CL6005: cell line Ovarian OVCAR-8, CL6005; for sensitivity class Prostate DU-145 CL11003: cell line Prostate DU-145, CL11003; for sensitivity class Renal A498 CL9013: cell line Renal A498, CL9013
Outline: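 Values come from the NCI-DTP screen database: -log GI50, the concentration giving 50% growth inhibition, derived from SRB cell-mass dose-response curves. Each line seeded at its own density, treated day 1 at five ten-fold-spaced doses in duplicate wells, stained after 48 h.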

[2] = system: 60 cancer cell lines (NCI 60 cancer cell line series); conditions: cited from earlier work

Compound: Bleomycin
- classification of cell line as Low(1), Medium(2) or High(3) sensitivity to compound ([1]; Breast MCF7(I) (CL5001)): 2
- classification of cell line as Low(1), Medium(2) or High(3) sensitivity to compound ([1]; Breast MCF7/ADRr (CL5002)): 2
- classification of cell line as Low(1), Medium(2) or High(3) sensitivity to compound ([1]; Breast MDA-MB-231 CL5005): 1
- classification of cell line as Low(1), Medium(2) or High(3) sensitivity to compound ([1]; Breast MDA-MB-435 (CL5011)): 1
- classification of cell line as Low(1), Medium(2) or High(3) sensitivity to compound ([1]; Breast MDA-N CL5012): 1
- classification of cell line as Low(1), Medium(2) or High(3) sensitivity to compound ([1]; Breast T-47D (CL5014)): 2
- classification of cell line as Low(1), Medium(2) or High(3) sensitivity to compound ([1]; CNS SF-268 CL12014): 2
- classification of cell line as Low(1), Medium(2) or High(3) sensitivity to compound ([1]; CNS SF-295 CL12015): 3
- classification of cell line as Low(1), Medium(2) or High(3) sensitivity to compound ([1]; CNS SF-539 CL12016): 3
- classification of cell line as Low(1), Medium(2) or High(3) sensitivity to compound ([1]; CNS SNB-19 (CL12002)): 2
- classification of cell line as Low(1), Medium(2) or High(3) sensitivity to compound ([1]; CNS SNB-75(I) CL12005): 2
- classification of cell line as Low(1), Medium(2) or High(3) sensitivity to compound ([1]; CNS U251(I) CL12009): 2
- classification of cell line as Low(1), Medium(2) or High(3) sensitivity to compound ([1]; Colon COLO-250 CL4010): 2
- classification of cell line as Low(1), Medium(2) or High(3) sensitivity to compound ([1]; Colon HCT-15 CL4015): 2
- classification of cell line as Low(1), Medium(2) or High(3) sensitivity to compound ([1]; Colon HCT-116 (CL4003)): 2
- classification of cell line as Low(1), Medium(2) or High(3) sensitivity to compound ([1]; Colon HT29(I) CL4001): 1
- classification of cell line as Low(1), Medium(2) or High(3) sensitivity to compound ([1]; Colon KM12 (CL4017)): 1
- classification of cell line as Low(1), Medium(2) or High(3) sensitivity to compound ([1]; Colon SW-620 (CL4009)): 2
- classification of cell line as Low(1), Medium(2) or High(3) sensitivity to compound ([1]; Leukemia CCRF-CEM(I) (CL7003)): 2
- classification of cell line as Low(1), Medium(2) or High(3) sensitivity to compound ([1]; Leukemia HL-60(I) (CL7008)): 2
- classification of cell line as Low(1), Medium(2) or High(3) sensitivity to compound ([1]; Leukemia K562(I) CL7005): 2
- classification of cell line as Low(1), Medium(2) or High(3) sensitivity to compound ([1]; Leukemia MOLT-4 (CL7006)): 2
- classification of cell line as Low(1), Medium(2) or High(3) sensitivity to compound ([1]; Leukemia SR CL7019): 3
- classification of cell line as Low(1), Medium(2) or High(3) sensitivity to compound ([1]; Melanoma LOX IMVI CL10001): 3
- classification of cell line as Low(1), Medium(2) or High(3) sensitivity to compound ([1]; Melanoma M14 (CL10014)): 2
- classification of cell line as Low(1), Medium(2) or High(3) sensitivity to compound ([1]; Melanoma MALME-3M CL10002): 2
- sensitivity class NSCLC NCI-H23(I) CL1001 [1]: 2
- sensitivity class NSCLC NCI-H332M CL1017 ([1]; cell line NSCLC NCI-H332M, CL1017): 1
- sensitivity class NSCLC NCI-H522 CL1003 [1]: 2
- sensitivity class Ovarian IGROV1 CL6010 [1]: 2
- sensitivity class Ovarian OVCAR-3 CL6001 ([1]; cell line Ovarian OVCAR-3, CL6001): 2
- sensitivity class Ovarian OVCAR-4 CL6002 [1]: 2
- sensitivity class Ovarian OVCAR-5 CL6003 [1]: 2
- sensitivity class Ovarian OVCAR-8 CL6005 [1]: 2
- sensitivity class Ovarian SK-OV-3 CL6011 ([1]; cell line Ovarian SK-OV-3, CL6011): 2
- sensitivity class Prostate DU-145 CL11003 [1]: 2
- sensitivity class Prostate PC-3(I) CL11001 ([1]; cell line Prostate PC-3(I), CL11001): 2
- sensitivity class Renal 786-O CL9018 ([1]; cell line Renal 786-O, CL9018): 2
- sensitivity class Renal A498 CL9013 [1]: 2
- sensitivity class Renal ACHN CL9023 ([1]; cell line Renal ACHN, CL9023): 3
- sensitivity class Renal SN12C CL9008 ([1]; cell line Renal SN12C, CL9008): 2
- sensitivity class Renal TK10 CL9024 ([1]; cell line Renal TK10, CL9024): 1
- 1 # of Low ([1]; number of the 60 cell lines classified Low (1) sensitivity): 12
- -Log (GI50) ([2]; Breast BT-549 (CL5013)): 5.0 and 5.1
- -Log (GI50) ([2]; Breast MCF7(I) (CL5001)): 5.7 and 5.5
- -Log (GI50) ([2]; Breast MCF7/ADRr (CL5002)): 6.1 and 6.0
- -Log (GI50) ([2]; Breast MDA-MB-435 (CL5011)): 4.7 and 4.6
- -Log (GI50) ([2]; Breast MDA-N CL5012): 4.8 and 4.6
- -Log (GI50) ([2]; Breast T-47D (CL5014)): 5.3 and 5.2
- -Log (GI50) ([2]; CNS SF-295 CL12015): 7.0 and 7.2
- -Log (GI50) ([2]; CNS SF-539 CL12016): 7.7
- -Log (GI50) ([2]; CNS SNB-19 (CL12002)): 5.4 and 5.5
- -Log (GI50) ([2]; Colon COLO-250 CL4010): 5.2 and 5.3
- -Log (GI50) ([2]; Colon HCC-2998 (CL4002)): 5.0 and 4.7
- -Log (GI50) ([2]; Colon HCT-116 (CL4003)): 6.4 and 6.2
- -Log (GI50) ([2]; Colon HT29(I) CL4001): 4.9 and 4.8
- -Log (GI50) ([2]; Colon KM12 (CL4017)): 4.9 and 4.8
- -Log (GI50) ([2]; Colon SW-620 (CL4009)): 5.1 and 5.0
- -Log (GI50) ([2]; Leukemia HL-60(I) (CL7008)): 5.2 and 5.3
- -Log (GI50) ([2]; Leukemia MOLT-4 (CL7006)): 5.9 and 6.2
- -Log (GI50) ([2]; Leukemia RPMI-8226(I) (CL7010)): 4.8 and 4.9
- -Log (GI50) ([2]; Melanoma LOX IMVI CL10001): 6.8
- -Log (GI50) ([2]; Melanoma M14 (CL10014)): 5.8 and 5.5
- -Log (GI50) ([2]; NSCLC NCI-H23(I) CL1001): 6.2 and 6.3
- -Log (GI50) ([2]; NSCLC NCI-H332M CL1017): 4.8 and 4.5
- -Log (GI50) ([2]; Ovarian OVCAR-3 CL6001): 5.3
- -Log (GI50) ([2]; Ovarian OVCAR-8 CL6005): 5.5 and 5.8
- -Log (GI50) ([2]; Ovarian SK-OV-3 CL6011): 5.2 and 5.4
- -Log (GI50) ([2]; Prostate DU-145 CL11003): 5.4 and 5.5
- -Log (GI50) ([2]; Prostate PC-3(I) CL11001): 5.1 and 5.3
- -Log (GI50) ([2]; Renal ACHN CL9023): 8.1 and 7.9
- -Log (GI50) ([2]; Renal RXF-393 CL9016): 6.7 and 6.6
- -Log (GI50) ([2]; Renal SN12C CL9008): 6.0 and 5.9
- -Log (GI50) ([2]; Renal TK10 CL9024): 5.0 and 4.7

Compound: N.N.[Cl][Pt][Cl] [cisplatin, cis-Diamminedichloroplatinum (II), reference compound]
- classification of cell line as Low(1), Medium(2) or High(3) sensitivity to compound ([1]; Breast BT-549 (CL5013)): 2
- classification of cell line as Low(1), Medium(2) or High(3) sensitivity to compound ([1]; Breast HS-578T CL5006): 2
- classification of cell line as Low(1), Medium(2) or High(3) sensitivity to compound ([1]; Breast MCF7/ADRr (CL5002)): 2
- classification of cell line as Low(1), Medium(2) or High(3) sensitivity to compound ([1]; Breast MDA-MB-231 CL5005): 1
- classification of cell line as Low(1), Medium(2) or High(3) sensitivity to compound ([1]; Breast MDA-N CL5012): 2
- classification of cell line as Low(1), Medium(2) or High(3) sensitivity to compound ([1]; Breast T-47D (CL5014)): 1
- classification of cell line as Low(1), Medium(2) or High(3) sensitivity to compound ([1]; CNS SF-268 CL12014): 3
- classification of cell line as Low(1), Medium(2) or High(3) sensitivity to compound ([1]; CNS SF-539 CL12016): 2
- classification of cell line as Low(1), Medium(2) or High(3) sensitivity to compound ([1]; CNS SNB-75(I) CL12005): 2
- classification of cell line as Low(1), Medium(2) or High(3) sensitivity to compound ([1]; CNS U251(I) CL12009): 2
- classification of cell line as Low(1), Medium(2) or High(3) sensitivity to compound ([1]; Colon COLO-250 CL4010): 1
- classification of cell line as Low(1), Medium(2) or High(3) sensitivity to compound ([1]; Colon HCC-2998 (CL4002)): 2
- classification of cell line as Low(1), Medium(2) or High(3) sensitivity to compound ([1]; Colon HCT-15 CL4015): 1
- classification of cell line as Low(1), Medium(2) or High(3) sensitivity to compound ([1]; Colon HT29(I) CL4001): 1
- classification of cell line as Low(1), Medium(2) or High(3) sensitivity to compound ([1]; Colon SW-620 (CL4009)): 2
- classification of cell line as Low(1), Medium(2) or High(3) sensitivity to compound ([1]; Leukemia HL-60(I) (CL7008)): 3
- classification of cell line as Low(1), Medium(2) or High(3) sensitivity to compound ([1]; Leukemia K562(I) CL7005): 2
- classification of cell line as Low(1), Medium(2) or High(3) sensitivity to compound ([1]; Leukemia RPMI-8226(I) (CL7010)): 2
- classification of cell line as Low(1), Medium(2) or High(3) sensitivity to compound ([1]; Melanoma LOX IMVI CL10001): 3
- classification of cell line as Low(1), Medium(2) or High(3) sensitivity to compound ([1]; Melanoma M14 (CL10014)): 2
- sensitivity class NSCLC NCI-H23(I) CL1001 [1]: 3
- sensitivity class NSCLC NCI-H460 CL1021 ([1]; cell line NSCLC NCI-H460, CL1021): 3
- sensitivity class NSCLC NCI-H522 CL1003 [1]: 2
- sensitivity class Ovarian IGROV1 CL6010 [1]: 2
- sensitivity class Ovarian OVCAR-4 CL6002 [1]: 2
- sensitivity class Ovarian OVCAR-5 CL6003 [1]: 2
- sensitivity class Ovarian OVCAR-8 CL6005 [1]: 2
- sensitivity class Prostate DU-145 CL11003 [1]: 2
- sensitivity class Renal A498 CL9013 [1]: 1
- sensitivity class Renal RXF-393 CL9016 ([1]; cell line Renal RXF-393, CL9016): 2
- sensitivity class Renal UO-31 CL9004 ([1]; cell line Renal UO-31, CL9004): 2
- -Log (GI50) ([2]; Breast MCF7(I) (CL5001)): 5.5
- -Log (GI50) ([2]; Ovarian SK-OV-3 CL6011): 5.2
